# Earlier results, collected in patent publication US20040063806A1, “Antimicrobial polyalphaolefin composition” (priority 2000, published 2004).
# Where two headings read alike, the source gives them in different places.
# Tests used:
# [1] = test system: Staphylococcus saprophyticus; details: Staphylococcus saprophyticus NCTC 7292, medium NA
# Actinomyces israelii = Actinomyces israelii NCTC 8047, medium NA
# Candida paracrusei = details: origin A, medium SMA
# Actinomyces bovis = details: origin A, medium NA
# Actinomyces naeslundii = details: origin A, medium NA
# Haemophilius influenca = Haemophilius influenca ATCC 33391, medium B-A
# Enterobacter cloacae = Enterobacter cloacae ATCC 13047, medium M-H
# Acinetobacter lwoffii = Acinetobacter lwoffii ATCC 15309, medium M-H
# Vibrio cholerae = details: origin A, medium NA
# Epidermophyton floccosum = Epidermophyton floccosum ATCC 10227, medium SMA
# Sarcina urea = Sarcina urea ATCC 6473, medium BHI-A
# Clostridium botulinum = Clostridium botulinum NCTC 3805, medium EA
# Clostridium sporogenes = details: origin A, medium EA
# [2] = test system: Mycobacterium tuberculosis; details: origin A, medium YA
# Bacillus megatherium = details: origin A, medium NA
# [3] = test system: Staphylococcus epidermidis; details: Staphylococcus epidermidis ATCC 12228, medium M-H
# Loefferella pseudomallei = Loefferella pseudomallei NCIB 10230, medium NA
# Vibrio eltor = Vibrio eltor NCTC 8457, medium NA
# Streptococcus coelicolor = details: origin A, medium BHI-A
# Serratia marcescens = Serratia marcescens ATCC 14756, medium M-H
# Klebsiella oxytoca = Klebsiella oxytoca ATCC 43165, medium M-H
# Corynebacterium acnes = details: Corynebacterium acnes* ATCC 6919, medium BHI-A
# Klebsiella aerogenes = Klebsiella aerogenes NCTC 8172, medium NA
# Salmonella enteritidis = details: origin A, medium NA
# Citrobacter freundii = details: origin A, medium NA
# Enterococcus arabinosus = Enterococcus arabinosus ATCC 8014, medium MACA
# Pasteurella septica = Pasteurella septica NCTC 948, medium NA
# Candida stellatoidae = details: origin A, medium SMA
# Aerobacter arogenes = Aerobacter arogenes CITM 413, medium NA
# Listeria monocytogenes = Listeria monocytogenes ATCC 15313, medium BHI-A
# Mycobacterium smegmatis = Mycobacterium smegmatis NCTC 8152, medium BHI-A
# [4] = test system: Pasteurella pseudotuberculosis; details: origin C-G, medium NA
# Shigella sonnei = Shigella sonnei NCTC 7240, medium NA
structure (smiles),measurement,setting,value
"Oc1cc(Cl)ccc1Oc1ccc(Cl)cc1Cl [IRGAGUARD B 1000, 2,4,4′-trichloro-2′-hydroxydiphenyl ether]",Microbiostatic effect,[1],0.1 ppm
same,Microbiostatic effect,Actinomyces israelii,1.0 ppm
same,Microbiostatic effect,Candida paracrusei,4 ppm
same,Microbiostatic effect,Actinomyces bovis,1.0 ppm
same,Microbiostatic effect,"Salmonella paratyphi B; Salmonella paratyphi B NCTC 3176, medium NA",0.3 ppm
same,Microbiostatic effect,"Salmonella paratyphi B; Salmonella paratyphi B NCTC 5704, medium NA",0.1 ppm
same,Microbiostatic effect,Actinomyces naeslundii,1.0 ppm
same,Microbiostatic effect,Haemophilius influenca,2.0 ppm
same,Microbiostatic effect,Enterobacter cloacae,0.5 ppm
same,Microbiostatic effect,Acinetobacter lwoffii,0.125 ppm
same,Microbiostatic effect,Vibrio cholerae,10.0 ppm
same,Microbiostatic effect,"Escherichia coli; Escheria coli ATCC 8196, medium M-H",0.02 ppm
same,Microbiostatic effect,"Escherichia coli; Escherichia coli ATCC 4388, medium M-H, Serotype 0157",0.1 ppm
same,Microbiostatic effect,"Escherichia coli; Escherichia coli ATCC 9661, medium NA",0.3 ppm
same,Microbiostatic effect,"Escherichia coli; Escherichia coli ATCC 10536, medium BHI",0.5 ppm
same,Microbiostatic effect,"Escherichia coli; Escherichia coli ATCC 11229, medium M-H",0.5 ppm
same,Microbiostatic effect,"Escherichia coli; Escherichia coli ATCC 25922, medium M-H",0.25 ppm
same,Microbiostatic effect,"Escherichia coli; Escherichia coli ATCC 35150, medium M-H, Serotype 0157",0.2 ppm
same,Microbiostatic effect,"Escherichia coli; Escherichia coli ATCC 43889, medium M-H, Serotype 0157",0.2 ppm
same,Microbiostatic effect,"Escherichia coli; Escherichia coli ATCC 43890, medium M-H, Serotype 0157",0.2 ppm
same,Microbiostatic effect,"Escherichia coli; Escherichia coli NCTC 9663, medium NA",0.3 ppm
same,Microbiostatic effect,"Escherichia coli; Escherichia coli NCTC 11186, medium M-H, Tobramicin resistant",0.5 ppm
same,Microbiostatic effect,Epidermophyton floccosum,1-10 ppm
same,Microbiostatic effect,Sarcina urea,0.1 ppm
same,Microbiostatic effect,Clostridium botulinum,3.0 ppm
same,Microbiostatic effect,Clostridium sporogenes,10.0 ppm
same,Microbiostatic effect,"Candida albicans; Candida albicans ATCC 10259, medium M",3 ppm
same,Microbiostatic effect,"Candida albicans; Candida albicans, origin A, medium SMA",10 ppm
same,Microbiostatic effect,[2],100.0 ppm
same,Microbiostatic effect,Bacillus megatherium,3.0 ppm
same,Microbiostatic effect,[3],<0.125 ppm
same,Microbiostatic effect,Loefferella pseudomallei,1.0 ppm
same,Microbiostatic effect,"Proteus vulgaris; Proteus vulgaris NCTC 4636, medium NA",0.3 ppm
same,Microbiostatic effect,"Proteus vulgaris; Proteus vulgaris NCTC 8313, medium NA",0.1 ppm
same,Microbiostatic effect,Vibrio eltor,10.0 ppm
same,Microbiostatic effect,Streptococcus coelicolor,1.0 ppm
same,Microbiostatic effect,Serratia marcescens,>512 ppm
same,Microbiostatic effect,Klebsiella oxytoca,1.0 ppm
same,Microbiostatic effect,"Salmonella typhi; Salmonella typhi NCTC 786, medium NA",0.3 ppm
same,Microbiostatic effect,"Salmonella typhi; Salmonella typhi NCTC 8384, medium NA",0.3 ppm
same,Microbiostatic effect,Corynebacterium acnes,3.0 ppm
same,Microbiostatic effect,Klebsiella aerogenes,0.3 ppm
same,Microbiostatic effect,Salmonella enteritidis,0.1 ppm
same,Microbiostatic effect,Citrobacter freundii,3.0 ppm
same,Microbiostatic effect,Enterococcus arabinosus,33.0 ppm
same,Microbiostatic effect,Pasteurella septica,0.1 ppm
same,Microbiostatic effect,"Klebsiella pneumoniae; Klebsiella pneumoniae ATCC 4352, medium NA",0.3 ppm
same,Microbiostatic effect,"Klebsiella pneumoniae; Klebsiella pneumoniae ATCC 10031, medium M-H",0.125 ppm
same,Microbiostatic effect,Candida stellatoidae,10 ppm
same,Microbiostatic effect,"Pseudomonas aeruginosa; Pseudomonad aeruginosa ATCC 12055, medium NA",>1000 ppm
same,Microbiostatic effect,"Pseudomonas aeruginosa; Pseudomonas aeruginosa NCTC 8060, medium NA",>1000 ppm
same,Microbiostatic effect,Aerobacter arogenes,1.0 ppm
same,Microbiostatic effect,Listeria monocytogenes,1.0 ppm
same,Microbiostatic effect,Mycobacterium smegmatis,1.0 ppm
same,Microbiostatic effect,[4],10.0 ppm
same,Microbiostatic effect,Shigella sonnei,0.1 ppm
